The test system of one data set is E. coli (Swine). The data set can be described thus: Microbiological assay, MIC and MBC, E. coli (Swine). The format is cell-based. The note with it: combinations 1:1 by weight.
The next data set deals with E. coli (Calf). The experiment in a line: Microbiological assay, MIC and MBC, E. coli (Calf). To be noted: combinations 1:1 by weight.
In a further data set the test system is Salmonella typhi-murium. The experiment in a line: Microbiological assay, MIC and MBC, Salmonella typhi-murium. The format is cell-based. The note with it: combinations 1:1 by weight.
The subject of another data set is Pasteurella multocida. The experiment in a line: Microbiological assay, MIC and MBC, Pasteurella multocida. The note with it: combinations 1:1 by weight.
The conditions of data set [1]: in vivo; cited from earlier work.
In a further data set the test system is Staphylococcus aureus. The experiment in a line: Microbiological assay, minimal inhibiting (MIC) and minimal bactericide (MBC) concentrations, Staphylococcus aureus. The note with it: combinations 1:1 by weight.
The subject of another data set is Treponema hyodysenteriae. To be noted: orally applied; swine dysentery; British patent specification No. 2,072,012; cited from earlier work.
In a further data set the test system is Mycoplasma hyopneumoniae. To be noted: orally applied; enzootic pneumonia; Taylor, IPVS Congress 1982; cited from earlier work.
Data set [2] relates to some Gram positive bacteria, Mycoplasma and the most important Treponema. To be noted: cited from earlier work.
The subject of data set [3] is Pseudomonas strains of mastitic origin. The note with it: cited from earlier work.
[4] abbreviates: Escherichia coli, read-out: MBC.
[5] abbreviates: Escherichia coli, read-out: MIC.

Where a name gives a salt, the structure may show the parent alone. Read-outs that look alike come from different tables or passages of the source.

Data on seven compounds can be found in patent publication US4650790A, “Drug combinations having synergistic effect” (Patentbureau Danubia, priority 1984, dated 1987).

For `NC[C@H]1O[C@H](O[C@H]2[C@H](O)[C@@H](O[C@H]3O[C@H](CO)[C@@H](O)[C@H](N)[C@H]3O)[C@H](N)C[C@@H]2N)[C@H](N)C[C@@H]1O` [Tobramycin], in the data set on E. coli (Swine) (setting [4]), the MBC (commonly the smallest concentration meeting the test's criterion for killing) is 5 µg/mL. Also, the minimum inhibitory concentration (MIC) (usually the lowest concentration found to suppress growth) with E. coli (Swine) (setting [5]) stood at 1 µg/mL.

For the compound `NC[C@@H]1O[C@H](O[C@H]2[C@@H](O)[C@H](O[C@@H]3[C@@H](O)[C@H](N)C[C@H](N)[C@H]3O[C@H]3O[C@H](CN)[C@@H](O)[C@H](O)[C@H]3N)O[C@@H]2CO)[C@H](N)[C@@H](O)[C@@H]1O` [Neomycin], the minimum bactericidal concentration (MBC) in the data set on E. coli (Calf) is greater than 200 µg/mL; in the data set on E. coli (Swine) it was 10 µg/mL; in the data set on Salmonella typhi-murium, 25 µg/mL; in the data set on Pasteurella multocida, 5 µg/mL; in the data set on Staphylococcus aureus it was 25 µg/mL. The minimum inhibitory concentration (MIC) with E. coli (Calf) is greater than 200 µg/mL; with E. coli (Swine) it was 5 µg/mL; in the data set with Salmonella typhi-murium, 10 µg/mL; in the data set with Pasteurella multocida, 1 µg/mL; in the data set on Staphylococcus aureus, 10 µg/mL. Further, the nephrotoxic properties entry in data set [1] was “may cause azotaemia and oliguria”.

With `C=C[C@]1(C)C[C@@H](OC(=O)CSCCN(CC)CC)[C@]2(C)[C@H](C)CC[C@]3(CCC(=O)[C@H]32)[C@@H](C)[C@@H]1O` [Tiamulin, 14-desoxy-14-[(2-diethyl-amino-ethyl)-mercapto-acetoxy]-mutilin hydrogen fumarate], the MBC in the data set with E. coli (Swine) (setting [4]) is 100 µg/mL. Besides, the minimum inhibitory concentration (MIC) in the data set on E. coli (Swine) (setting [5]) is 50 µg/mL. Besides, in the data set on Treponema hyodysenteriae, the “effectiveness against Treponema hyodysenteriae” value is given as “extremely effective”. Besides, the “effectiveness against Mycoplasma hyopneumoniae” value in the data set on Mycoplasma hyopneumoniae was “extremely effective”. The “effectiveness against some Gram positive bacteria, Mycoplasma and Treponema” value in [2] was “effective against some Gram positive bacteria, Mycoplasma and the most important Treponema”.

Consider Gentamycin, for which the MBC turned out to be 5 µg/mL in the data set with E. coli (Calf); 5 µg/mL with E. coli (Swine); 5 µg/mL in the data set with Salmonella typhi-murium; 1 µg/mL in the data set on Pasteurella multocida; 5 µg/mL with Staphylococcus aureus. The minimum inhibitory concentration (MIC) in the data set on E. coli (Calf) is 5 µg/mL; in the data set on E. coli (Swine) it was 5 µg/mL; with Salmonella typhi-murium, 5 µg/mL; with Pasteurella multocida, less than 0.5 µg/mL; in the data set with Staphylococcus aureus, 0.5 µg/mL.

`NC[C@H]1O[C@H](O[C@H]2[C@H](O)[C@@H](O[C@H]3O[C@H](CO)[C@@H](O)[C@H](N)[C@H]3O)[C@H](N)C[C@@H]2N)[C@H](O)[C@@H](O)[C@@H]1O` [Kanamycin]: the MBC was 25 µg/mL in the data set with E. coli (Swine) (setting [4]) and 50 µg/mL in the data set on Salmonella typhi-murium (Salmonella enterica, read-out: MBC). Also, the MIC in the data set with E. coli (Swine) (setting [5]) was 10 µg/mL; in the data set with Salmonella typhi-murium (Salmonella enterica, read-out: MIC), 25 µg/mL.

In the case of `[H]/N=C(/N)N[C@H]1[C@H](O)[C@@H](O)[C@H](O[C@@H]2O[C@@H](C)[C@](O)(C=O)[C@H]2O[C@@H]2O[C@@H](CO)[C@H](O)[C@@H](O)[C@@H]2NC)[C@@H](N/C(N)=N\[H])[C@@H]1O` [Streptomycin], the minimal bactericidal concentration (MBC) in the data set with E. coli (Swine) (setting [4]) was greater than 200 µg/mL. Besides, the MIC in the data set on E. coli (Swine) (setting [5]) amounted to 100 µg/mL.

As for `CN[C@@H]1[C@@H](O[C@H]2O[C@H](CO)[C@@H](N)[C@H](O)[C@H]2O)OC2C[C@@H](N)[C@@H](O[C@H]3[C@H](O)[C@@H](O)[C@H](N)C[C@@H]3N)OC2[C@@H]1O` (stereo partly shown) [Apramycin], the MBC with E. coli (Swine) (setting [4]) is 25 µg/mL. Also, the minimal inhibitory concentration (MIC) in the data set on E. coli (Swine) (setting [5]) is 25 µg/mL. Further, the “effect against Pseudomonas strains of mastitic origin” value in data set [3] was “particularly strong effect”.
